Results: ChEMBL document CHEMBL4732170, “Discovery of Small-Molecule Antagonists of the PWWP Domain of NSD2” (J Med Chem, 2021)
The source made the active and inactive calls.

Tests used:
[1] = molecular target: T1, Zinc finger CW-type PWWP domain protein 1 (Homo sapiens) (UniProt Q9H0M4); test: Binding affinity to ZCWPW1 PWWP1 domain (unknown origin) assessed as aggregation temperature at 400 uM by heating at 25 to 85 degC by differential static light scattering method
T1 sequence (whole entry): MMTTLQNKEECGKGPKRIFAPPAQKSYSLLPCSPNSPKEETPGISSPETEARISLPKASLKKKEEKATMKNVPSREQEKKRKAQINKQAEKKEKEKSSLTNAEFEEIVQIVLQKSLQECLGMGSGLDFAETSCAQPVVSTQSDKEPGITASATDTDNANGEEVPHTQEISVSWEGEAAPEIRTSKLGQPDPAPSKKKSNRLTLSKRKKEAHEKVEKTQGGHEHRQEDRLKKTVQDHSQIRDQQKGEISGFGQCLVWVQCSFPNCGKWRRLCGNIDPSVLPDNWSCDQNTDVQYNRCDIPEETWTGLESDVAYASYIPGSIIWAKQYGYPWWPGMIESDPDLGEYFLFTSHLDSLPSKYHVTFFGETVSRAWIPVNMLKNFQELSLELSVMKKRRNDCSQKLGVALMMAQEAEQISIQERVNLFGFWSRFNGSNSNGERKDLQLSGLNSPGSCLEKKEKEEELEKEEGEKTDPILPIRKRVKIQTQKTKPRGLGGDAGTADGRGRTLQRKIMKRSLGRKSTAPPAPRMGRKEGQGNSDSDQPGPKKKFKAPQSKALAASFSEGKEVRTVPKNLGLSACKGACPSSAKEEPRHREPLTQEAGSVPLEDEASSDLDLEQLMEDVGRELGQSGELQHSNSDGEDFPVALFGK

[2] = molecular target: DNA mismatch repair protein Msh6 (Homo sapiens) (UniProt P52701); test: Binding affinity to MSH6 PWWP domain (unknown origin) assessed as aggregation temperature at 400 uM by heating at 25 to 85 degC by differential static light scattering method
Sequence of DNA mismatch repair protein Msh6 (Homo sapiens) (P52701 whole entry, the tested form may be a part): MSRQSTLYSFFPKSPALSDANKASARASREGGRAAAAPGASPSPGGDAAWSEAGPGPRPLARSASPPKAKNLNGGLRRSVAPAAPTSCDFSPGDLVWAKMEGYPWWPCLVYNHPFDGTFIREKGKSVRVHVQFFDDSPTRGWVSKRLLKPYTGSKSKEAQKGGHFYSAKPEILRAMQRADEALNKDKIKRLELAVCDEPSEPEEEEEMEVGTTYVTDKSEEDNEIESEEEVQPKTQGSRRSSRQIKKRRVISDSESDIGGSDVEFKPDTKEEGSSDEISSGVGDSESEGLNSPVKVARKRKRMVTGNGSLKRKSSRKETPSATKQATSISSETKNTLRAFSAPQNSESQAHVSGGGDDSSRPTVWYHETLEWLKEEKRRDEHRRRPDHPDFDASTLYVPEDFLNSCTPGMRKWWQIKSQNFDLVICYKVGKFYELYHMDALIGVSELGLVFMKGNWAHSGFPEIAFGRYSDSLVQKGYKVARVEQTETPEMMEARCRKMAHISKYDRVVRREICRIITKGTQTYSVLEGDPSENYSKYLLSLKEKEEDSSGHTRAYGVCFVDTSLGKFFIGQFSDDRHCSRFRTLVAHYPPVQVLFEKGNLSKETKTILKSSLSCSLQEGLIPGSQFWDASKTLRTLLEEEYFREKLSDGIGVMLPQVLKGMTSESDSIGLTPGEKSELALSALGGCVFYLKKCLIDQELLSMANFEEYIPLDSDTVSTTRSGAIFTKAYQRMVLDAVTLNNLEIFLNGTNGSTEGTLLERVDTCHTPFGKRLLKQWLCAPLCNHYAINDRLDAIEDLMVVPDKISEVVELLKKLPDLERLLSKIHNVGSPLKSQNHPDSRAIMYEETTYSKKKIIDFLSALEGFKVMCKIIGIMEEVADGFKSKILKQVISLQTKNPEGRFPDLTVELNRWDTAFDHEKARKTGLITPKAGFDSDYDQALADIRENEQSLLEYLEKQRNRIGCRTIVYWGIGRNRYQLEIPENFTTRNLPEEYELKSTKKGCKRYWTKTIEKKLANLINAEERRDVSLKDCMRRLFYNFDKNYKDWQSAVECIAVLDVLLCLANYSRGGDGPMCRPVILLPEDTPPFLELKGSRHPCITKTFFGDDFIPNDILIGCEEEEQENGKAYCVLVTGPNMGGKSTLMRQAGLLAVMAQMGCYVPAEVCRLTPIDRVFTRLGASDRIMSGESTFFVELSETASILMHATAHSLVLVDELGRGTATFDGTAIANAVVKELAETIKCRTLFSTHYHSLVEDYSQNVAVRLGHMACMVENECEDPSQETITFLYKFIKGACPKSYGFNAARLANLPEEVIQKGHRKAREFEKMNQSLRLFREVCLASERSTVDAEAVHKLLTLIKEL

[3] = molecular target: DNA (cytosine-5)-methyltransferase 3B (Homo sapiens) (UniProt Q9UBC3); test: Binding affinity to DNMT3b PWWP domain (unknown origin) assessed as aggregation temperature at 400 uM by heating at 25 to 85 degC by differential static light scattering method
Peregrin (Homo sapiens) = molecular target: T2, Peregrin (Homo sapiens) (UniProt P55201); test: Binding affinity to BRPF1 PWWP domain (unknown origin) assessed as aggregation temperature at 400 uM by heating at 25 to 85 degC by differential static light scattering method
T2 sequence (whole entry): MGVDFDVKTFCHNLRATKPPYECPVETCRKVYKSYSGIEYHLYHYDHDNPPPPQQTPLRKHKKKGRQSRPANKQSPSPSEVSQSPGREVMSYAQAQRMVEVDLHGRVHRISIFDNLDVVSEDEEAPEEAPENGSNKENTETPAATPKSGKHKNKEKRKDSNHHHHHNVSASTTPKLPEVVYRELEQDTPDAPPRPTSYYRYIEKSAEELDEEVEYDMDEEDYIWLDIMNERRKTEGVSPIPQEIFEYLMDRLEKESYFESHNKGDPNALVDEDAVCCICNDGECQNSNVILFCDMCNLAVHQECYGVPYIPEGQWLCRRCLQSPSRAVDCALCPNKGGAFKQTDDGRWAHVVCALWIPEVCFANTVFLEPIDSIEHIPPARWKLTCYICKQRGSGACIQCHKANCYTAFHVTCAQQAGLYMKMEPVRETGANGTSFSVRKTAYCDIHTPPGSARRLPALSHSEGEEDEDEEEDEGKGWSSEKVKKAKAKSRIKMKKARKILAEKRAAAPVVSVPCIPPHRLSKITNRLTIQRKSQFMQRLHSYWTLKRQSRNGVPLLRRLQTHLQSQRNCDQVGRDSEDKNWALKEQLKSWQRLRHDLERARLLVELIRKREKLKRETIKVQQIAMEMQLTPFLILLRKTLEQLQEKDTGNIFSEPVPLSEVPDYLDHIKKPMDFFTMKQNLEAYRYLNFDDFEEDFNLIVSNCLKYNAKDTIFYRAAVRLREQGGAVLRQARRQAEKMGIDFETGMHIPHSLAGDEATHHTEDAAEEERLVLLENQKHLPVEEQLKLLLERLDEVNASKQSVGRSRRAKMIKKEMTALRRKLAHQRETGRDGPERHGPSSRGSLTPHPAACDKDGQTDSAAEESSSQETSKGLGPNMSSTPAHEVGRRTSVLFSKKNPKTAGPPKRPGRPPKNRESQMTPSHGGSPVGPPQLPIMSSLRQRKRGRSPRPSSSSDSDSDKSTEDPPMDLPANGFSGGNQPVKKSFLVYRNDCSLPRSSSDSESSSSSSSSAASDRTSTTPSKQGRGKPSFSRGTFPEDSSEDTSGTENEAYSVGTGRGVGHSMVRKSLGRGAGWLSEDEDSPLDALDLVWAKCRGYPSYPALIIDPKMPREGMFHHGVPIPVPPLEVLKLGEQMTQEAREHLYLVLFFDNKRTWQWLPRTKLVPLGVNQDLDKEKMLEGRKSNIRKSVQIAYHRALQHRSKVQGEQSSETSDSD

[4] = molecular target: T3, Zinc finger MYND domain-containing protein 11 (Homo sapiens) (UniProt Q15326); test: Binding affinity to ZMYND11 PWWP1 domain (unknown origin) assessed as aggregation temperature at 400 uM by heating at 25 to 85 degC by differential static light scattering method
T3 sequence (whole entry): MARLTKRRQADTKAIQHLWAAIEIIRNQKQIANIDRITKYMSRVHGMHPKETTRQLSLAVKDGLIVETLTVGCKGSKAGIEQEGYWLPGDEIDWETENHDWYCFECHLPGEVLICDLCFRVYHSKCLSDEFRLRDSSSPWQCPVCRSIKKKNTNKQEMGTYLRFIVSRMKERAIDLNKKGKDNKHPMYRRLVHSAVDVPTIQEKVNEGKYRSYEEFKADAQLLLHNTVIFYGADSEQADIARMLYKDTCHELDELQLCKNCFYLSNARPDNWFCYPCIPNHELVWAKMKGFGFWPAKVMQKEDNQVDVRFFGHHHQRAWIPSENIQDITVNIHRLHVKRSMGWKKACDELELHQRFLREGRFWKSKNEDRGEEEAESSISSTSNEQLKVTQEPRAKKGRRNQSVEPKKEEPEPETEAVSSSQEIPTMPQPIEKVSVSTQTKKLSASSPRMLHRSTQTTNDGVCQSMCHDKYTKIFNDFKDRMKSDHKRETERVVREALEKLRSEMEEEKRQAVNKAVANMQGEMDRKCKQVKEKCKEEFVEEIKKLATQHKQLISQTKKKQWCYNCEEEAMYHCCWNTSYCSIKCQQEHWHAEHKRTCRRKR

Measured: Activity

N#Cc1ccc(C(C(N)=O)N2CCC2c2ccc(Cl)cc2)cc1 (stereo not given)
inactive: all assays above
